Measured values as given in a melting point compilation (Tetko et al.; mined from patent text by program, amines drawn as free bases though some values may be those of a salt).

SMILES	melting point
COc1cc(-c2cc(=Nc3c(C)cc(C)cc3C)n(C)c(=O)n2C)ccc1O	90 to 100 °C
CC(C)(C)COc1c(-c2ccc(S(C)(=O)=O)cc2)cnn(-c2ccc(F)c(F)c2)c1=O	126 to 128 °C
COC(=O)c1ccccc1C(=O)Nc1cc(C(F)(F)F)on1	116 to 117 °C
ClCc1cc(-c2ccccc2)no1	69 to 70 °C
c1cncc(Nc2nnc(Cc3ccncc3)c3ccccc23)c1	137 to 139 °C
N#Cc1ccc(-c2ccc(C(CCC(=O)O)=NO)cc2)cc1	157 to 159 °C
c1ccc(C(c2ccc3[nH]c(-c4ccccn4)nc3c2)n2ccnc2)cc1 (centres undefined)	123 °C
O=C(c1ccc(F)cc1)C1CCN(CCN(C(=O)c2ccc([N+](=O)[O-])cc2)c2cccc(C(F)(F)F)c2)CC1	123 to 137 °C
O=C(O)c1ccc(-c2ccc3nnn(Cc4c(F)ccc(F)c4Cl)c3n2)cc1F	211 to 213 °C
CC(=CC(=O)c1ccc(C(F)(F)F)cc1[N+](=O)[O-])N(C)C	122 °C
CCc1nc(N)nc(N)c1-c1cccc(Cl)c1Cl	228 to 230 °C
Cn1cc2c(ncn3nc(-c4ccco4)nc23)n1	155 to 156 °C
O=C(CCl)Nc1ccc2c(c1NC(=O)c1cccc(Cl)c1)C(=O)c1ccccc1C2=O	188 to 189 °C
CC(C)n1cnc2c(Nc3ccncc3)nc(F)nc21	105 to 106 °C
O=C1N(Cc2ccc(C(F)(F)F)nc2)c2ccccc2C12COc1cc3c(cc12)OCCO3 (centres undefined)	204 to 207 °C
CCC(CC)O[C@@H]1C=C(C(=O)OC)C[C@H](CC(O)CO)[C@H]1NC(C)=O (some centres undefined)	125 to 126 °C
CC(C)(C)OOC(C)(C)c1ccc(C(C)(C)OOC(C)(C)C)cc1	76 to 77 °C
O=C1CC(c2ccc(Cl)cc2Cl)Cc2[nH]c3ccc(Cl)cc3c(=O)c21 (centres undefined)	308 to 310 °C
CCC(=O)c1ccc(OC)c(OC(=O)CCl)c1	77 to 79.5 °C
CCOC(=O)[C@H](CSCc1ccccc1)NC(=O)C(C)(C)NC(=O)[C@@H](S)C(C)C	87 to 91 °C
O=c1c(Br)c(OCc2ccccc2C(F)(F)F)ccn1Cc1ccccc1	133 to 134 °C
C[C@@H]1Cc2cc(N3C[C@H](CN)OC3=O)ccc2N1C(=O)OCc1ccccc1	120 to 122 °C
CCCCCCCCc1c(C)nc2cc(C)nn2c1O	199 °C
CC1(C)C(=O)Oc2ccc3ccc(C(C#N)n4cncn4)cc3c21 (centres undefined)	196 to 198 °C
O=C(CNC(=O)c1ccccc1)c1ccccc1	114 to 120 °C

SMILES	melting point
CCCn1c(=O)c2c(nc(C=Cc3ccc(C(=O)O)cc3)n2C)n(CCC)c1=O	215 to 217 °C
CN(C(=O)c1ccc2c(c1)nc(NC(=O)c1cccs1)n2CCCC(N)=O)C1CCCCC1	112 to 115 °C
O=C(c1ccc(I)cc1)C1(c2ccccc2F)CO1 (centres undefined)	75 to 76 °C
CCCCN(CC)CC(=O)N1c2ccccc2N(C)C(=O)c2cncnc21	131 to 133 °C
OCc1cnoc1-c1cccc(Cl)c1	80 to 81 °C
NCCNC(=S)Nc1c(Cl)cc([N+](=O)[O-])cc1Cl	205 °C
Cc1cc(-c2nc3cccnn3c2-c2ccnc(NC(=O)c3ccoc3)c2)ccc1F	199 to 200 °C
O=C(c1ccccc1)C(O)c1ccc(F)cc1 (centres undefined)	108 to 109 °C
N#Cc1cccc(/C=C/C2=CCN(Cc3c[nH]c4ncccc34)CC2)c1	213 to 215 °C
Cc1ccc(C(=Cc2nnnn2C)c2ccc(C)cc2C)c(C)c1	143 to 144 °C
Clc1cc2c(oc3c(Cl)c(Br)c(Cl)c(Br)c32)c(Br)c1Br	288 to 290 °C
O=C(O)C1=CSC2C(=Cc3ccc4nc5n(c4c3)CCCS5)C(=O)N12 (centres undefined)	> 250 °C
Cc1cc(C)c(N2CCCc3c2nn(C)c3C(=O)O)c(Cl)c1	248 °C
O=C1OC(CCCCl)CN1c1ccccc1 (centres undefined)	76 to 79 °C
COC(=O)[C@@H]1CC(=O)N(c2ccc(O)cc2)C1	123 °C
COCCn1nc2c(N)nc3ncccc3c2c1CC1CCOCC1	230 to 233 °C
Cc1nc2c(N)nc3ccccc3c2n1CCOCCCc1ccccc1	130 to 131 °C
Nc1c(Cl)nc2ccccc2c1NCc1cc(-c2ccc(F)cc2)no1	127 to 128 °C
COc1cc2c(N3CCN(C(=O)Nc4ccc(Oc5ccccc5)cc4)CC3)ncnc2cc1OCc1ccccc1	220 to 221 °C
COc1cc(/C=C/C=C/C=O)ccc1OCc1nc(-c2ccccc2)oc1C	133 to 134 °C
CC(Sc1cnn(C(C)(C)C)c(=O)c1Cl)c1ccc(C(C)(C)C)cc1 (single isomer, unassigned; (+))	102 to 104 °C
Nc1nc2n(n1)Cc1ccccc1-2	193 to 194 °C
CCCCNC(=O)n1cc[nH]c1=S	66 to 68 °C
COc1nsc(NC(=O)[C@H](C)NC(=O)[C@H](Cc2ccccc2)NC(=O)OCc2ccccc2)n1	161 to 162 °C
CC(C)(O)c1ccnc(-c2ccc3nc(-c4n[nH]c5ccccc45)cn3c2)c1	255 to 259 °C

SMILES	melting point
O=c1cccccc1N1CCN(Cc2ccccc2)CC1	78 to 80 °C
Nc1nc(NCC=Cc2ccccc2)nc(-c2cc(Cl)ccc2Cl)n1	198 to 199 °C
O=C(NCN1CCOCC1)c1cn(-c2ccc(F)cc2)c2cc(-c3ccncc3)ccc2c1=O	258 to 260 °C
Cc1oc(-c2ccc3ccccc3c2)nc1CCc1ccc(CCCC2OC(=O)NC2=O)cc1 (centres undefined)	168 to 169 °C
C=C1SC(=O)N(c2ccc3cc(-c4ccc(OC)c(C56CC7CC(CC(C7)C5)C6)c4)ccc3c2)C1=O	286 to 287 °C
Nc1cc(=O)n(Cc2ccc(Cl)c(Br)c2)[nH]1	171 to 172 °C
CCCCCCCCCCCCCCOc1cc(OCCCCCCc2cccc(O)c2O)cc(C(=O)O)c1	92 to 94 °C
CC1(C)Cc2cc(NC(N)=O)c3c(c2C(c2ccccc2)=N1)CC(C)(C)O3	151 to 153 °C
CS(=O)(=O)c1ccc(-c2cnn(Cc3ccccc3)c(=O)c2Cl)cc1	166 to 167 °C
CCCCCCCCCCc1sc2c(sc3c2sc2c4sccc4sc23)c1CCCCCCCCCC	50.9 to 52.5 °C
CC(Oc1ncnc2ccccc12)c1ccc(C(C)(C)C)cc1 (centres undefined)	85 to 86 °C
Nc1ccc(C#Cc2cnn3c(C4CC4)cc(-c4ccc(C(F)(F)F)cc4)nc23)cn1	228 to 231 °C
O=C(NCc1ncc(C(F)(F)F)cc1Cl)c1c(Cl)ccnc1Cl	122 to 124 °C
O=c1c(Cl)c(Cl)cnn1-c1cccc(COc2ccccc2)c1	92 to 94 °C
CC(=O)/C=C1/C(=O)N(c2ccccc2)C1c1ccccc1 (centres undefined)	158 °C
CC(C)Oc1ccc(OC(C)C)c(OCCN2C(=O)c3ccccc3C2=O)c1	66 °C
OC(c1ccccc1)(c1cccs1)C1CCN(CCc2ccccc2)CC1 (centres undefined)	143 to 144 °C
CC(=O)NC[C@H]1CN(c2cccc(F)c2)C(=O)O1	140 °C
CCn1cc(C(=O)O)c(=O)c2cc(F)c(N3CCN(S(=O)(=O)c4ccc(C)cc4)CC3)c(F)c21	236 to 237 °C
O=[N+]([O-])c1cc(Cl)c(Cl)c(Cl)c1Cl	41 to 44 °C
Oc1noc2ccc(F)cc12	201 to 203 °C
c1ccc(-c2cc(OCCN3CCOCC3)[nH]n2)cc1	100 °C
CC(C)(C)C(=O)Nc1nc2[nH]c3cccc(Cl)c3c2c(=O)[nH]1	186 to 190 °C
CC(C)NC1=NS(=O)(=O)c2ccc(C(C)C)cc2N1	237 to 239 °C
O=c1oc(-c2cccc(OC(F)(F)F)c2)cc(O)c1SCc1ccccc1	128 to 132 °C

SMILES	melting point
CC(=O)Nc1cc(Br)c(O)c(Br)c1	155 to 156 °C
COc1cc(CCNC(=O)[C@@H](NS(C)(=O)=O)C(C)C)ccc1OCc1cccc2ccccc12	153 to 157 °C
CSc1ccc(-c2nn(Cc3ccc(Cl)cc3Cl)c(=S)cc2-c2ccc(F)cc2)cc1	154 °C
O=[N+]([O-])c1c(Cl)cccc1-c1nc2ccccc2n1CC(O)CO (centres undefined)	188 to 189 °C
O=C1O[C@@H](c2ccc(F)cc2)[C@@H](Cc2ccc(C(F)(F)F)cc2)N1Cc1cccc2ccccc12 (racemic)	136 to 137 °C
O=C(O)Cc1cccc2c(C3CCCC3)nccc12	172 °C
CCCc1c(OCCCCCC(=O)c2ccc3cc(OC)c(OC)cc3c2)ccc(C(=O)OC)c1O	111 to 112 °C
NC(=NO)c1ccccc1N	85 to 86 °C
Cc1c(OCCCSc2ccc3ncc([N+](=O)[O-])n3n2)ccnc1CO	135 to 136 °C
COc1ccc(CNc2nn(CC(=O)OC(C)(C)C)c(=O)c3ccc(C#N)cc23)cc1Cl	174 to 175 °C
CCCN(CCCc1c[nH]c2ccc(F)cc12)C1COc2c(C(N)=O)ccc(F)c2C1 (centres undefined)	123 °C
COc1cccc2c1CCC(COC(=O)N(c1ccccc1)c1ccccc1)C2 (centres undefined)	144 to 146 °C
CC(=O)NC1CC(N)(C(=O)O)C2C(C(=O)O)C12 (centres undefined)	> 275 °C
COC(=O)c1ccc(-c2nc(-c3ccccc3)n(C)n2)cc1	167 to 168 °C
O=C1C(=Cn2ccnc2)C(c2ccccc2)Oc2ccccc21 (centres undefined)	129 to 131 °C
N#CNC(=NCC(O)c1cccc(O)c1)NCCSCc1csc(NC(=N)N)n1 (centres undefined)	162 to 164 °C
CC(=O)Nc1ccc(-c2c(Cl)c(CN3C(=O)CCC3=O)nc3sc4c(c23)CCNC4)cc1	300 °C
COc1cc(CCCC2SC(=O)NC2=O)ccc1OCc1csc(-c2ccccc2)n1 (centres undefined)	123 to 124 °C
CCOc1nn(-c2ccc(C(F)(F)F)cn2)cc1CCCOc1cccc(CC(=O)O)c1F	120 to 121 °C
COc1ccc(OC2COc3ccc(OC(C)c4ccc5ccccc5n4)cc3C2O)cc1 (centres undefined)	81 to 85 °C
OCc1ccc(-c2coc(-c3cn([C@H]4CN5CCC4CC5)nn3)c2)cc1	202 °C
CCC(=O)Nc1cc(C(=O)O)ccc1N1C(=O)CCC1(CO)CO	217 to 218 °C
Nc1ccn(C2CC(O)C(CO)O2)c(=O)n1 (centres undefined)	208 to 210 °C
O=c1c2ccccc2[nH]n1Cc1cccc2ccccc12	198 to 200 °C
